One assay concerns A. flavus IFM 41935. The assay can be described thus: Antifungal Activity Against Aspergillus flavus (In vitro). It counts as cell-based. The note with it: IFM41935, RPMI 1640 with 0.165M MOPS, pH 7, 35° C., 24 hours. How it is done: Test 3: Antifungal Activity Against Aspergillus flavus (In vitro)
(§1) They were incubated at 35° C. for 24 hours. After incubation, the minimum medicament concentration permitting the apparent suppression of mycerial type growth compared with that of a medicament-free control was determined as an MIC value (μg/ml).

The subject of a further assay is C. albicans ATCC 44859. The assay can be described thus: Antifungal Activity Against Candida albicans (In vitro). It counts as cell-based. The note with it: ATCC44859, MEM + 10% fetal bovine serum, 37° C., 24 hours, CO2 incubator, read-out: Terminal point (minimum medicament concentration permitting apparent suppression of mycerial type growth). How it is done:
Test 1: Antifungal Activity Against Candida albicans (In vitro)
They were incubated at 37° C. for 24 hours in a CO2 gas incubator. After incubation, a morphological change of C. albicans was observed under an inverted microscope. The minimum medicament concentration permitting the apparent suppression of mycerial type growth compared with that of a medicament-free control was determined as a terminal point (ng/ml).

Another assay deals with A. fumigatus IFM 40808. The assay can be described thus: Antifungal Activity Against Aspergillus fumigatus (In vitro). Type of assay: cell-based. The note with it: IFM40808, RPMI 1640 with 0.165M MOPS, pH 7, 35° C., 24 hours. As to the method: Test 2: Antifungal Activity Against Aspergillus fumigatus (In vitro)
as §1

Another assay deals with C. albicans IFM 40009. Kind of assay: Antifungal Activity Against Candida albicans (In vivo), survival of infected mice. Also on record: species or system Candida albicans in male ICR (CRJ: CD-1) mice. The conditions noted are these: i.v. C. albicans infection, oral 1.25 mg/kg, four times in total; for Survival days: 14 days observation, Kaplan-Meier (Cox mantel test), ***: p < 0.001, control 4.1; for Survival mice on Day 14: survivors/total on day 14, control 0/10. How it is done: Test 4: Antifungal Activity Against Candida albicans (In vivo)
After 4-week-old, male, ICR (CRJ: CD-1) mice were fasted for 6 hours, C. albicans IFM 40009 was inoculated to a tail vein of each of the mice to give an amount of 3.0×10^6 cells/mouse, whereby infection was caused. A control group consisted of 10 mice, while a medicament-administered group consisted of 5 mice. The medicament was orally administered one hour after the inoculation of the fungus and then consecutively once a day 24 hours after the inoculation, four times in total, at 1.25 mg/kg each. The survival condition during 14 days after the infection was compared. In addition, the survival days of the control group and the medicament-administered group were detected by the Kaplan-Meier method (Cox mantel test).

Converted amounts (≈) assume the structure as drawn. Bounds are passed on as bounds.

As to `COCCSC(F)(F)C(Cn1cncn1)(OC)c1ccc(F)cc1F` (stereo not drawn) [Example 1, 1-{2-(2,4-difluorophenyl)-3,3-difluoro-2-methoxy-3-[(2-methoxyethyl)thio]propyl}-1H-1,2,4-triazole], the MIC in the assay on A. flavus IFM 41935 was more than 64 µg/mL; in the assay on C. albicans ATCC 44859, 0.0625 µg/mL; against A. fumigatus IFM 40808, 64 µg/mL (≈ 169 µM).

Turning to `COCCS(=O)(=O)C(F)(F)C(Cn1cncn1)(OC)c1ccc(F)cc1F` (stereo not drawn) [Example 7, 1-{2-(2,4-difluorophenyl)-3,3-difluoro-2-methoxy-3-[(2-methoxyethyl)sulfonyl]propyl}-1H-1,2,4-triazole], in the assay on C. albicans IFM 40009, the Survival days is recorded as 14.0 days and the “Survival mice on Day 14” value is recorded as 5/5.

For the compound `COC(Cn1cncn1)(c1ccc(F)cc1F)C(F)(F)S(=O)(=O)CCO` (stereo not drawn) [Example 9, 2-{[2-(2,4-Difluorophenyl)-1,1-difluoro-2-methoxy-3-(1H-1,2,4-triazol-1-yl)propyl]sulfonyl}-1-ethanol], in the assay with C. albicans IFM 40009, the Survival days was 14.0 days and the “Survival mice on Day 14” value is reported as 5/5.

For the compound `CCOC(Cn1cncn1)(c1ccc(F)cc1F)C(F)(F)S(=O)(=O)CCO` (stereo not drawn) [Example 10, 2-{[2-(2,4-Difluorophenyl)-2-ethoxy-1,1-difluoro-3-(1H-1,2,4-triazol-1-yl)propyl]sulfonyl}-1-ethanol], in the assay on C. albicans IFM 40009, the Survival days was determined as 13.4 days and the “Survival mice on Day 14” value was 4/5.

In the case of `COC(Cn1cncn1)(c1ccc(F)cc1F)C(F)(F)S(=O)(=O)CCOC(C)=O` (stereo not drawn) [Example 12, 2-{[2-(2,4-Difluorophenyl)-1,1-difluoro-2-methoxy-3-(1H-1,2,4-triazol-1-yl)propyl]sulfonyl}ethyl acetate], in the assay on C. albicans IFM 40009, the Survival days is on record as 14.0 days and the “Survival mice on Day 14” value is listed as 4/5.

Turning to `OC(Cn1cncn1)(Cn1cncn1)c1ccc(F)cc1F` [Fluconazole, reference compound], the MIC against A. flavus IFM 41935 was more than 128 µg/mL. Further, in the assay with C. albicans IFM 40009, the Survival days is listed as 9.6 days and the “Survival mice on Day 14” value is 0/5. Moreover, the MIC in the assay on A. fumigatus IFM 40808 was more than 128 µg/mL.

(Values after US6008239A, “Triazole derivative or salt thereof” (SSP Co., Ltd., priority 1997, dated 1999).)
